According to PubChem BioAssay AID2060504 (Molecular Pharmacology Branch, DTP, NCI, 2025):

Test system: 636577-100-R-J1-PDC complex spheroid viability
Assay: Anticancer human tumor 636577-100-R-J1-PDC patient-derived endometrial adenocarcinoma cell line growth inhibition [GQUAD]
Details: for IC50: curve of first compound; for viability, T/C: stronger effect = lower value
Method in brief: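 Multi-cell-type spheroids of tumor cells with HUVEC and mesenchymal stem cells, treated with drug combinations. Concentrations descend in half-log steps from near clinical Cmax, or from 10 microM where Cmax is unknown; viability read-out.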

[1] = second compound 0.0316 µM, first compound 0.0316 µM
[2] = second compound 0.0316 µM, first compound 0.1 µM
[3] = second compound 0.0316 µM, first compound 0.316 µM
[4] = second compound 0.0316 µM, first compound 1 µM
[5] = second compound 0.0316 µM, first compound 3.16 µM
[6] = second compound 0.0316 µM, first compound 10 µM
[7] = second compound 0.1 µM, first compound 0.0316 µM
[8] = second compound 0.1 µM, first compound 0.1 µM
[9] = second compound 0.1 µM, first compound 0.316 µM
[10] = second compound 0.1 µM, first compound 1 µM
[11] = second compound 0.1 µM, first compound 3.16 µM
[12] = second compound 0.1 µM, first compound 10 µM
[13] = second compound 0.316 µM, first compound 0.0316 µM
[14] = second compound 0.316 µM, first compound 0.1 µM
[15] = second compound 0.316 µM, first compound 0.316 µM
[16] = second compound 0.316 µM, first compound 1 µM
[17] = second compound 0.316 µM, first compound 3.16 µM
[18] = second compound 0.316 µM, first compound 10 µM
[19] = second compound 1 µM, first compound 0.0316 µM
[20] = second compound 1 µM, first compound 0.1 µM
[21] = second compound 1 µM, first compound 0.316 µM
[22] = second compound 1 µM, first compound 1 µM
[23] = second compound 1 µM, first compound 3.16 µM
[24] = second compound 1 µM, first compound 10 µM
[25] = second compound 3.16 µM, first compound 0.0316 µM
[26] = second compound 3.16 µM, first compound 0.1 µM
[27] = second compound 3.16 µM, first compound 0.316 µM
[28] = second compound 3.16 µM, first compound 1 µM
[29] = second compound 3.16 µM, first compound 3.16 µM
[30] = second compound 3.16 µM, first compound 10 µM
[31] = second compound 10 µM, first compound 0.0316 µM
[32] = second compound 10 µM, first compound 0.1 µM
[33] = second compound 10 µM, first compound 0.316 µM
[34] = second compound 10 µM, first compound 1 µM
[35] = second compound 10 µM, first compound 3.16 µM
[36] = second compound 10 µM, first compound 10 µM
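Further: viability read after seven days of drug exposure.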
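Wherever viability, T/C is given: luminescence signal used as a proxy for viable cells; 100% = DMSO vehicle control wells.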

With `CC1COCCN1c1cc(C2(S(C)(=N)=O)CC2)nc(-c2ccnc3[nH]ccc23)n1` (stereo unspecified) + Cc1[nH]c2ccc(F)cc2c1-c1nc2c3cccnc3c3ncccc3c2[nH]1 the IC50 (second compound 0.0316 µM) was 1180 nM, the IC50 (second compound 0.1 µM) was 652 nM and the IC50 (second compound 0.316 µM) was 678 nM. For the same molecule, the IC50 (second compound 1 µM) was 501 nM, the IC50 (second compound 3.16 µM) was < 31.6 nM and the IC50 (second compound 10 µM) was 394 nM. The viability, T/C [1] was 57.4%, the viability, T/C [2] was 83.1% and the viability, T/C [3] was 94.3%. It also gave a viability, T/C [4] of 54.7%, a viability, T/C [5] of 27.9% and a viability, T/C [6] of 15.1%. It also gave a viability, T/C [7] of 93.4%, a viability, T/C [8] of 72% and a viability, T/C [9] of 64.8%. The viability, T/C [10] was 43.1%, the viability, T/C [11] was 27.2% and the viability, T/C [12] was 15.7%. The viability, T/C [13] was 51.2%, the viability, T/C [14] was 101% and the viability, T/C [15] was 63.3%. The viability, T/C [16] was 40.4%, the viability, T/C [17] was 23.5% and the viability, T/C [18] was 12.2%. The viability, T/C [19] was 50.7%, the viability, T/C [20] was 77.8% and the viability, T/C [21] was 60.8%. The viability, T/C [22] was 33.2%, the viability, T/C [23] was 22.3% and the viability, T/C [24] was 12.8%. It also gave a viability, T/C [25] of 28.7%, a viability, T/C [26] of 49% and a viability, T/C [27] of 31%. The viability, T/C [28] was 23.1%, the viability, T/C [29] was 15.9% and the viability, T/C [30] was 9.24%. The viability, T/C [31] was 46%, the viability, T/C [32] was 59.8% and the viability, T/C [33] was 56.5%. For the same molecule, the viability, T/C [34] was 32.5%, the viability, T/C [35] was 18.6% and the viability, T/C [36] was 12.9%.

Work on `COc1cc(C2c3cc4c(cc3C(OC3OC5COC(C)OC5C(O)C3O)C3COC(=O)C23)OCO4)cc(OC)c1O` (stereo unspecified) + CN(C)c1ccc(Nc2c3ccc(NC(=O)CCN4CCCC4)cc3nc3cc(NC(=O)CCN4CCCC4)ccc23)cc1 yielded an IC50 (second compound 0.0316 µM) of 65.1 nM, an IC50 (second compound 0.1 µM) of 46.7 nM and an IC50 (second compound 0.316 µM) of 46.9 nM. The IC50 (second compound 1 µM) was 32.4 nM, the IC50 (second compound 3.16 µM) was < 31.6 nM and the IC50 (second compound 10 µM) was < 31.6 nM. For the same molecule, the viability, T/C [1] was 77.5%, the viability, T/C [2] was 33.3% and the viability, T/C [3] was 20.7%. The viability, T/C [4] was 17.2%, the viability, T/C [5] was 15.7% and the viability, T/C [6] was 13.8%. It also gave a viability, T/C [7] of 61.4%, a viability, T/C [8] of 27.9% and a viability, T/C [9] of 18.8%. It also gave a viability, T/C [10] of 19%, a viability, T/C [11] of 18.5% and a viability, T/C [12] of 14.6%. The viability, T/C [13] was 57%, the viability, T/C [14] was 37.1% and the viability, T/C [15] was 22.3%. It also gave a viability, T/C [16] of 17.7%, a viability, T/C [17] of 15.7% and a viability, T/C [18] of 12.9%. The viability, T/C [19] was 50.4%, the viability, T/C [20] was 30.6% and the viability, T/C [21] was 18.5%. For the same molecule, the viability, T/C [22] was 20.1%, the viability, T/C [23] was 16.2% and the viability, T/C [24] was 13.8%. For the same molecule, the viability, T/C [25] was 27.6%, the viability, T/C [26] was 20.5% and the viability, T/C [27] was 19.6%. It also gave a viability, T/C [28] of 17.4%, a viability, T/C [29] of 16.8% and a viability, T/C [30] of 13.1%. For the same molecule, the viability, T/C [31] was 5.34%, the viability, T/C [32] was 4.62% and the viability, T/C [33] was 4.08%. For the same molecule, the viability, T/C [34] was 4.02%, the viability, T/C [35] was 2.93% and the viability, T/C [36] was 2.35%.

`CC1COCCN1c1cc(C2(S(C)(=N)=O)CC2)nc(-c2ccnc3[nH]ccc23)n1` (stereo unspecified) + Cc1cnc(CNC(=O)c2c(=O)c3ccc(N4CCCN(C)CC4)nc3n3c2sc2ccccc23)cn1 was tested, and the IC50 (second compound 0.0316 µM) was 239 nM, the IC50 (second compound 0.1 µM) was < 31.6 nM and the IC50 (second compound 0.316 µM) was < 31.6 nM. The IC50 (second compound 1 µM) was < 31.6 nM, the IC50 (second compound 3.16 µM) was < 31.6 nM and the IC50 (second compound 10 µM) was < 31.6 nM. It also gave a viability, T/C [1] of 56.2%, a viability, T/C [2] of 50% and a viability, T/C [3] of 54.1%. For the same molecule, the viability, T/C [4] was 30.5%, the viability, T/C [5] was 45.3% and the viability, T/C [6] was 12.3%. For the same molecule, the viability, T/C [7] was 30.8%, the viability, T/C [8] was 29.6% and the viability, T/C [9] was 33.5%. For the same molecule, the viability, T/C [10] was 21.7%, the viability, T/C [11] was 27.5% and the viability, T/C [12] was 12.2%. The viability, T/C [13] was 23.4%, the viability, T/C [14] was 24.4% and the viability, T/C [15] was 25.2%. For the same molecule, the viability, T/C [16] was 22%, the viability, T/C [17] was 24.2% and the viability, T/C [18] was 14.5%. For the same molecule, the viability, T/C [19] was 21.1%, the viability, T/C [20] was 22.7% and the viability, T/C [21] was 21.8%. The viability, T/C [22] was 18.3%, the viability, T/C [23] was 24.8% and the viability, T/C [24] was 9.7%. The viability, T/C [25] was 18.5%, the viability, T/C [26] was 18.5% and the viability, T/C [27] was 21.2%. It also gave a viability, T/C [28] of 19.4%, a viability, T/C [29] of 21.5% and a viability, T/C [30] of 14.3%. It also gave a viability, T/C [31] of 16.9%, a viability, T/C [32] of 22.2% and a viability, T/C [33] of 23.4%. For the same molecule, the viability, T/C [34] was 22.7%, the viability, T/C [35] was 23% and the viability, T/C [36] was 13.2%.
